Reference: article PMC6072853 (Frontiers in Pharmacology, 2018)

How the values were obtained:
[1] = test system: HeLa; assay: MTT antiproliferative assay, HeLa; format: cell-based, human; details: Homo sapiens, 72 h; for inhibition at 10 µM / inhibition at 30 µM: read-out: Growth inhibition (%) ± SEM; for IC50: read-out: calculated IC50 value
Description: (§1) Gynecological cancer cell lines, including ovarian (A2780), cervical (HeLa), and breast cancer cell lines (MCF7, T47D, MDA-MB-231, and MDA-MB-361) were purchased from the European Collection of Authenticated Cell Cultures (ECACC, Salisbury, United Kingdom). Additional cervical cell lines (SiHa and C33A) and a non-cancerous immortalized, mammary gland epithelial cell line (hTERT-HME1) were purchased from LGC Standards GmbH (Wesel, Germany). Non-cancerous fibroblast cells (MRC-5) were also obtained from the ECACC. All cells were cultured in minimal essential medium supplemented with 10% fetal bovine serum, 1% non-essential amino acids, and 1% antibiotic-antimycotic mixture, in humidified air containing 5% CO2 at 37°C. Immortalized hTERT-HME1 cells were maintained in serum-free mammary epithelial cell growth medium (MEGM) supplemented with insulin, human epidermal growth factor (hEGF), hydrocortisone, bovine pituitary extract, and an antibiotic-antimycotic mixture. All the medium and supplements were purchased from Lonza Group Ltd. (Basel, Switzerland).
(§2) The antiproliferative properties of the compounds were assessed by an MTT assay ([Mosmann, 1983]). Cells were seeded onto 96-well microplates at a density of 10,000 cells/well (MDA-MB-361 and C33A) or 5,000 cells/well (all other cell lines). After an overnight incubation, fresh medium containing the test compounds (at a concentration of 10 or 30 μM) was added. After incubation for 72 h at 37°C in humidified air, [3-(4,5-dimethylthiazol-2-yl)-2,5-diphenyltetrazolium bromide] (MTT) solution (5 mg/mL) was added. Purple formazan crystals were formed by the living cells during a 4 h contact period, which were assayed by spectrophotometry after having been dissolved in 100 μL DMSO. Untreated cells served as control, and cisplatin (CIS) (Ebewe Pharma GmbH, Unterach, Austria) was used as a reference compound. […] Two independent measurements were performed with five parallel wells. To present preliminary data concerning tumor selectivity of the potent compounds, the procedure was repeated on MRC-5 fibroblast and hTERT-HME1 immortalized mammary gland epithelial cells under the same experimental conditions.

[2] = test system: MRC-5; assay: MTT assay, non-cancerous fibroblasts MRC-5; format: cell-based, human; details: Homo sapiens, MRC5, 72 h, read-out: Growth inhibition (%) ± SEM; for inhibition at 10 µM: MRC-5, 10 μM; for inhibition at 30 µM: MRC-5, 30 μM
Description: as §1, §2

[3] = test system: hTERT-HME1; assay: MTT assay, immortalized mammary gland epithelial cells hTERT-HME1; format: cell-based, human; details: Homo sapiens; for inhibition at 10 µM: hTERT-HME1, 10 μM; for inhibition at 10 µM / inhibition at 30 µM: 72 h, read-out: Growth inhibition (%) ± SEM; for inhibition at 30 µM: hTERT-HME1, 30 μM
Description: as §1, §2

[4] = test system: HeLa cells; assay: Fluorescent double staining (Hoechst 33258 / propidium iodide) morphology; format: cell-based, human; details: 24 h, 1.0, 3.0 or 5.0 μM
Experimental: Fluorescent double staining was performed in order to detect apoptosis induction and morphological changes using fluorescent microscopy. HeLa cells were seeded into a 96-well plate at the density of 3,000Ȓ5,000 cells per well. After an overnight incubation, the cells were treated with various concentrations of the test compounds for 24 h. The treated cells were then incubated with a fluorescent staining solution (containing Hoechst 33258 and propidium iodide, 500 and 300 μg/mL, respectively) for an hour. After staining, the cells were analyzed using a fluorescent microscope (Nikon ECLIPSE 146 TS100, Nikon Instruments Europe, Amstelveen, Netherlands) equipped with appropriate optical filters. For all different conditions, at least six fields were recorded with an attached QCapture CCD camera. This way cells with an intact, apoptotic or necrotic morphology can be distinguished based on their different nuclear morphological appearance and distinct membrane integrity.

[5] = test system: A2780; assay: MTT antiproliferative assay, A2780; format: cell-based, human; details: Homo sapiens, 72 h, read-out: Growth inhibition (%) ± SEM; for inhibition at 10 µM: A2780, 10 μM; for inhibition at 30 µM: A2780, 30 μM
Description: as §1, §2

[6] = test system: caspase-8; assay: Caspase-8 activity colorimetric assay; format: cell-based, human; details: HeLa
Experimental: In order to detect, whether the test compounds induce programmed cell death, the activity of caspase-3 was determined by a colorimetric assay. To elucidate the exact pathway of apoptosis, activities of caspase-8 and caspase-9 were additionally determined by colorimetric kits. In all cases approximately 12 million cells were treated with appropriate concentrations of the compounds for 24 or 72 h. After the treatment, the cells were scraped and the enzyme activities were determined by means of colorimetric assays mentioned above. All kits were purchased from Abnova Corp. (Taipei, Taiwan) and used in accordance with the instructions of the manufacturer.

[7] = test system: C33A; assay: MTT antiproliferative assay, C33A; format: cell-based, human; details: Homo sapiens, C-33-A, 72 h, read-out: Growth inhibition (%) ± SEM
Description: as §1, §2

[8] = biological target: T1, human androgenic receptor (Homo sapiens, UniProt P10275); assay: Yeast-based androgenic reporter assay, agonistic; format: cell-based; details: read-out: Calculated EC50 values, androgenic activity
T1 construct: host or cells: Saccharomyces cerevisiae
T1 sequence (P10275 1-920): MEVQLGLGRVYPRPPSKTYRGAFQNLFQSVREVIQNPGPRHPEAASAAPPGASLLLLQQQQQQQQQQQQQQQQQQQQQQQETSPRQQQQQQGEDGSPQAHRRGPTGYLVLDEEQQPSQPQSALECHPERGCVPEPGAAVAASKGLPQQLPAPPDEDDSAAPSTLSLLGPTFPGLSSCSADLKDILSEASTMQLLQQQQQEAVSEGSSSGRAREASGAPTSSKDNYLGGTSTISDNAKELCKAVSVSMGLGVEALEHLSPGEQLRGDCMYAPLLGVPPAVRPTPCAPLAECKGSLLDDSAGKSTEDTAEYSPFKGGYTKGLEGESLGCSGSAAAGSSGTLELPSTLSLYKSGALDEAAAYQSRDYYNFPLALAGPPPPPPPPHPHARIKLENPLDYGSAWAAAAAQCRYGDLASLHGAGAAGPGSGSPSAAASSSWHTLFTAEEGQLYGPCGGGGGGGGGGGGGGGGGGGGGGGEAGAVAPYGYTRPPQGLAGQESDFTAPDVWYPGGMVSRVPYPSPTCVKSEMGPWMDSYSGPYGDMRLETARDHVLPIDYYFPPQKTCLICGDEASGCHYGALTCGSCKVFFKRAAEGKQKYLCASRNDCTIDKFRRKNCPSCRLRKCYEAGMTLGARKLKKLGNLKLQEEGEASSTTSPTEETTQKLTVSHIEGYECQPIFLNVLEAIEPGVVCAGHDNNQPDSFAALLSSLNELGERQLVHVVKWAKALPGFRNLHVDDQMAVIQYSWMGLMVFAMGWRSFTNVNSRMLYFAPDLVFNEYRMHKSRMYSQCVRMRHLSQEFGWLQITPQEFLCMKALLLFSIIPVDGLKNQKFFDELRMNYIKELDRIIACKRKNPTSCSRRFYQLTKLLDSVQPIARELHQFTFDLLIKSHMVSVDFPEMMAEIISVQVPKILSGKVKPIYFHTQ
Experimental: Genetically modified yeast cells (Saccharomyces cerevisiae) containing the human androgenic receptor gene integrated into a yeast chromosome, as well as an expression plasmid with the sequences of both the androgen responsive element and a lacZ reporter gene were cultured in humidified air at 31°C with agitation for 2 days. The appropriate concentrations of the test compounds and a CPRG substrate solution (chlorophenol red-β-D-galactopyranoside) for β-galactosidase were added into a 96-well microplate according to the instructions of the manufacturer. Androgen agonistic and antagonistic properties of the test compounds were determined by a colorimetric assay. For the antagonistic measurements the medium was supplemented with 5α-dihydrotestosterone (DHT). Once the reporter gene is expressed, β-galactosidase is secreted into the medium, and converts the yellow CPRG substrate into a red product, which can be quantified at 570 nm. Quantities of this red product correlate with the liberation of β-galactosidase, which is increased when an agonistic effect is present, while it is decreased when the test compound exerts an antagonistic effect. For the agonistic and antagonistic assays, nandrolone (1) and flutamide were used as reference agents, respectively.

Structure (SMILES) | inhibition at 10 µM [1] [%] | inhibition at 30 µM [1] [%] | IC50 [1] [nM] | inhibition at 10 µM [2] [%] | inhibition at 30 µM [2] [%] | inhibition at 10 µM [3] [%] | inhibition at 30 µM [3] [%] | apoptotic and necrotic cell populations (morphology) [4] | inhibition at 10 µM [5] [%] | inhibition at 30 µM [5] [%] | caspase-8 activity ([6]; 72 h) | inhibition at 10 µM [7] [%] | inhibition at 30 µM [7] [%] | EC50 [8] [nM] | IC50 ([3]; hTERT-HME1, 72 h, read-out: calculated IC50 value) [nM] | caspase-8 activity ([6]; 24 h)
C[C@]12CC[C@H]3[C@@H](CCC4=CC(=O)CC[C@@H]43)[C@@H]1CC[C@@H]2O [Compound 1, 19-nortestosterone, reference compound] | 99.5 ± 0.2 | 99.5 ± 0.3 | 650 | 5.4 ± 1.2 | 11.3 ± 0.5 | 16.9 ± 1.2 | 37.1 | substantial and concentration-dependent increase in both the apoptotic and necrotic cell populations | < 20 | < 20 | less pronounced | < 20 | 25.2 ± 1.7 | – | – | –
C[C@]12CC[C@H]3[C@@H](CCC4=CC(=O)CC[C@@H]43)[C@@H]1CC[C@H]2Cl [Compound 3] | 95.9 ± 0.3 | 95.1 ± 0.5 | 1210 | 4.3 ± 3.7 | 8 ± 2.3 | 76.2 ± 0.5 | 99.9 ± 0.1 | substantial and concentration-dependent increase in both the apoptotic and necrotic cell populations | < 20 | 32.7 ± 1 | – | < 20 | 61.7 ± 1.7 | 3800 | 4630 | no change
